This is an account of results in ChEMBL document CHEMBL1201862, “PubChem BioAssay data set” (2004).

Molecules are shown by their SMILES.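 Test compounds were applied to cells in 96-well plates for 48 hours at 5 doses. Abbreviation: GI50, concentration required for 50% inhibition of growth.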 Calls of active or inactive are those of the source. Cut-off read from the data, not from the text of the source: active = GI50 up to about 1.1 µM and inactive = higher. A value given as a limit tells only on which side of the number the result lay.

What all share (assay): NCI anticancer screen, dose series, 48 h
Test [1] deals with M14.
Test [2] deals with NCI-H522.
Test [3] relates to RXF 393.
For test [4], the system named is UACC-257.
In test [5] the test system is RPMI-8226.
Test [6] has as its system KM12.
For test [7], the system named is MOLT-4.
In test [8] the test system is SF-295.
Test [9] relates to UO-31.
Test [10] relates to HL-60.
Test [11] has as its system HCT-15.
Test [12] has as its system 786-0.
In test [13] the test system is ACHN.
Test [14] has as its system NCI-H226.
The test system of test [15] is LOX IMVI.
Test [16] has as its system CAKI-1.
The test system of test [17] is OVCAR-8.
The test system of test [18] is T47D.
Test [19] has as its system PC-3.
Test [20] has as its system BT-549.

As to `Cc1ccc(NC(=O)/C(=N/NC(=O)CC#N)C2C(=O)N(c3ccccc3)N=C2N)cc1C` (stereo not given), the GI50 in test [1], in test [2], in [3], in test [4], in [5] and in [6] was > 100 µM (inactive) each time. The GI50 in [7] is > 100 µM (inactive); in test [8], > 100 µM (inactive); in test [9], > 100 µM (inactive); in [10] it was > 100 µM (inactive); in [11], over 100 µM; in test [12], > 100 µM (inactive). The GI50 in test [13], in test [14], in [15], in test [16] and in test [17] was > 100 µM (inactive) each time.

On to `CCOC(=O)CCC1(CCC(=O)OCC)CCCCCCCCC(CCC(=O)OCC)(CCC(=O)OCC)C(=O)C1=O`, for which the GI50 in [1] was > 100 µM (inactive); in test [2], 35.5 µM (inactive); in test [4], > 100 µM (inactive); in [6], > 100 µM (inactive); in [18], 79.1 µM (inactive); in test [8], > 100 µM (inactive). Also, the GI50 is over 100 µM in test [11]; > 100 µM (inactive) in test [12]; > 100 µM (inactive) in [13]; > 100 µM (inactive) in test [14]; > 100 µM (inactive) in test [15]; > 100 µM (inactive) in test [16]. The GI50 in test [17] and in [19] was > 100 µM (inactive) each time.

Consider `O=C(NCC(C(=O)OCc1ccccc1)C(=O)OCc1ccccc1)OCc1ccccc1`, for which the GI50 is > 100 µM (inactive) in [1]; 72.6 µM (inactive) in test [2]; 77.4 µM (inactive) in [3]; > 100 µM (inactive) in [4]; 38.8 µM (inactive) in test [20]; > 100 µM (inactive) in test [5]. The GI50 in test [6] is > 100 µM (inactive); in test [7] it was 19.2 µM (inactive); in test [8], > 100 µM (inactive); in test [9], 47.9 µM (inactive); in test [11] it was over 100 µM; in [12], > 100 µM (inactive). The GI50 in test [13] was > 100 µM (inactive); in test [14] it was 50.4 µM (inactive); in test [16], > 100 µM (inactive); in test [17], > 100 µM (inactive); in [19], 35.4 µM (inactive).

On to `O=C(C1OC1c1ccc(Br)cc1O)C12CC3CC(CC(C3)C1)C2` (stereo not given), for which the GI50 is 18.1 µM (inactive) in test [1]; 18.8 µM (inactive) in test [2]; 21.7 µM (inactive) in test [3]; 29 µM (inactive) in test [4]; 17.8 µM (inactive) in test [5]; 19.5 µM (inactive) in test [6]. The GI50 in test [7] is 16.1 µM (inactive); in test [18], 40.8 µM (inactive); in [8], 17.9 µM (inactive); in [9], 13.2 µM (inactive); in test [10], 16.9 µM (inactive); in [11] it was 19.4 µM. Moreover, the GI50 is 17.6 µM (inactive) in test [12]; 33.9 µM (inactive) in test [13]; 28.5 µM (inactive) in [14]; 14.6 µM (inactive) in test [15]; 20.5 µM (inactive) in test [17]; 23.6 µM (inactive) in test [19].

Turning to `CN1CCC(OC(=O)Oc2ccccc2)(c2ccccc2)CC1`, the GI50 is 15 µM (inactive) in [1]; 24 µM (inactive) in test [2]; 37.3 µM (inactive) in [3]; 19.7 µM (inactive) in test [4]; 15.5 µM (inactive) in test [5]; 17.9 µM (inactive) in [6]. Moreover, the GI50 is 13.1 µM (inactive) in test [7]; 26.6 µM (inactive) in test [18]; 24 µM (inactive) in test [8]; 19.6 µM (inactive) in test [9]; 16.5 µM (inactive) in test [10]; 16.7 µM in [11]. Also, the GI50 in test [12] is > 100 µM (inactive); in test [13], 34.9 µM (inactive); in test [14], 22.7 µM (inactive); in test [15] it was 17.8 µM (inactive); in test [16], 77.3 µM (inactive); in test [17] it was 17.5 µM (inactive). Moreover, the GI50 in test [19] is 18 µM (inactive).

As for `CC12C3CC4C5CC(C(C53)[C@@H]1NCc1ccccc1)C42` (stereo not given in full), the GI50 is > 100 µM (inactive) in test [1]; 36.2 µM (inactive) in test [2]; 84.9 µM (inactive) in [3]; > 100 µM (inactive) in [4]; > 100 µM (inactive) in test [5]; > 100 µM (inactive) in test [6]. Moreover, the GI50 in test [7] is > 100 µM (inactive); in test [8] it was > 100 µM (inactive); in test [9], 89.7 µM (inactive); in test [10], > 100 µM (inactive); in [11] it was 78.9 µM; in [12], > 100 µM (inactive). The GI50 was > 100 µM (inactive) in test [13]; > 100 µM (inactive) in test [14]; > 100 µM (inactive) in test [15]; 79.8 µM (inactive) in test [16]; > 100 µM (inactive) in test [17].

Regarding `CC(C)=C[C@@H]1C[C@H](n2cc(C)c(=O)[nH]c2=O)ON1CCO`, the GI50 in test [1], in [2], in test [3], in test [4], in [5] and in test [6] was > 100 µM (inactive) in each case. In addition, the GI50 in test [7] was > 100 µM (inactive); in [18], > 100 µM (inactive); in test [8] it was > 100 µM (inactive); in [9], > 100 µM (inactive); in test [10] it was 3.08 µM (inactive); in test [11], over 100 µM. The GI50 in test [12], in [13], in test [14], in [15], in test [16] and in [17] was > 100 µM (inactive) in each case. For the same molecule, the GI50 in [19] is > 100 µM (inactive).

On to `CN(C)CCC1(C2=CCCC2)CC/C(=C\c2ccc(Cl)cc2)C1=O` (stereo not given), for which the GI50 is 2.01 µM (inactive) in test [1]; 6.68 µM (inactive) in test [2]; 2.31 µM (inactive) in [3]; 2.92 µM (inactive) in test [4]; 5.73 µM (inactive) in test [5]; 9.91 µM (inactive) in [6]. For the same molecule, the GI50 in test [7] was 2.24 µM (inactive); in [8] it was 7.82 µM (inactive); in [9] it was 5.33 µM (inactive); in [10], 1.6 µM (inactive); in test [11], 5.07 µM; in [12] it was 4.04 µM (inactive). The GI50 in [13] was 11.5 µM (inactive); in test [14], 14.2 µM (inactive); in test [15], 10.1 µM (inactive); in [16], 7.03 µM (inactive); in test [17], 12.3 µM (inactive).

In the case of `CC(C)(C)OC(=O)[C@@H]1CCC(=S)N1Cc1ccccc1`, the GI50 is > 100 µM (inactive) in [1]; > 100 µM (inactive) in test [2]; > 100 µM (inactive) in test [3]; > 100 µM (inactive) in [4]; 71.8 µM (inactive) in test [20]; > 100 µM (inactive) in test [5]. Further, the GI50 in [6] is > 100 µM (inactive); in [7], 93.1 µM (inactive); in test [8], > 100 µM (inactive); in test [9], 78.2 µM (inactive); in test [11], over 100 µM; in test [12], > 100 µM (inactive). Also, the GI50 was > 100 µM (inactive) in test [13]; 60.1 µM (inactive) in [14]; > 100 µM (inactive) in test [15]; > 100 µM (inactive) in test [16]; > 100 µM (inactive) in test [17]; > 100 µM (inactive) in test [19].

Turning to `CN(C)c1n/c(=N/Cc2cccnc2)ss1`, the GI50 in test [1] is > 10 µM (inactive); in test [3] it was > 10 µM (inactive); in [4] it was > 10 µM (inactive); in [5] it was > 10 µM (inactive); in test [6], > 10 µM (inactive); in test [7], 3.5 µM (inactive). In addition, the GI50 in test [18] is > 10 µM (inactive); in test [8] it was > 10 µM (inactive); in [10], 3.24 µM (inactive); in test [11], over 10 µM; in test [12], > 10 µM (inactive); in test [15], 8.95 µM (inactive). Moreover, the GI50 in test [16], in [17] and in [19] was > 10 µM (inactive) in each case.

As to `O=C(N/N=C1\C(=O)Nc2c(Cl)cc(Cl)cc21)C(=O)Nc1cccc(C(F)(F)F)c1`, the GI50 was > 100 µM (inactive) in test [1]; > 100 µM (inactive) in test [3]; > 100 µM (inactive) in test [4]; > 100 µM (inactive) in test [20]; > 100 µM (inactive) in [6]; 85.1 µM (inactive) in test [7]. Further, the GI50 in test [8] was > 100 µM (inactive); in test [9], > 100 µM (inactive); in test [10] it was 62.8 µM (inactive); in [11] it was over 100 µM; in test [12], > 100 µM (inactive); in test [13] it was > 100 µM (inactive). Moreover, the GI50 in [14], in test [15], in [16], in [17] and in test [19] was > 100 µM (inactive) throughout.

For `COC(=O)CCCc1ccc2c(c1)CC1(Cc3ccccc3C1)C2`, the GI50 in test [1] was 44.4 µM (inactive); in [2], 47.6 µM (inactive); in [3] it was 77.1 µM (inactive); in test [4], 32.2 µM (inactive); in [5], 28.4 µM (inactive); in test [6], > 100 µM (inactive). Moreover, the GI50 was 0.333 µM (active) in test [7]; > 100 µM (inactive) in test [18]; > 100 µM (inactive) in test [8]; 86.1 µM (inactive) in test [9]; 6.28 µM in [11]; > 100 µM (inactive) in [12]. Also, the GI50 in test [13] is 75.3 µM (inactive); in [14], > 100 µM (inactive); in test [15], 40.3 µM (inactive); in test [17], 70.1 µM (inactive); in [19], 41.1 µM (inactive).
